Measurements from PMC8247401, “Evaluation of clinical and genetic factors in the population pharmacokinetics of carbamazepine” (British Journal of Clinical Pharmacology, 2020).
Where two headings read alike, the source gives them in different places.

Columns and labels:
[1] = Population PK model (NONMEM) of plasma CBZ and 3 metabolites after oral CBZ; settings: for effect of concomitant treatment as covariate on CBZ clearance/metabolism: categorical covariate on CLTOT in the population PK model, small numbers of subjects; for % Interindividual variability of V2: V2 shared by the 3 metabolites; for clearance: human, plasma, oral; for V2, volume of distribution of metabolites: same V2 estimated for CBZE, 2OH-CBZ and 3OH-CBZ, apparent
[2] = test system: microsomal epoxide hydrolase; settings: concurrent brivaracetam therapy in patients on CBZ; cited from earlier work
[3] = design: method as in PMID 17382827; settings: patients treated with CBZ, cited from earlier work
[4] = design: method as in PMID 6491988; settings: fixed, not estimated; CL2 (to CBZE)=CLTOT*(1-FM1), CL3=CL4=CLTOT*FM1/2; cited from earlier work
[5] = cited from earlier work
[6] = 70-kg patient prescribed 400 mg CBZ; model assumes 0.65 of CBZ converted to CBZE; cited from earlier work
[7] = final model, log-normal distribution

SMILES: COc1ccc2[nH]c([S+]([O-])Cc3ncc(C)c(OC)c3C)nc2c1 (stereo not shown) [omeprazole]
- effect of concomitant treatment as covariate on CBZ clearance/metabolism [1]: Neither was found to affect metabolism of CBZ significantly

SMILES: NC(=O)OCC(COC(N)=O)c1ccccc1 [felbamate]
- effect of concomitant treatment as covariate on CBZ clearance/metabolism [1]: None of those antiepileptic drugs (AEDs) achieved a significant effect

SMILES: NC(=O)N1c2ccccc2C=Cc2ccc(O)cc21 [3OH‐CBZ, 3‐hydroxycarbamazepine]
- % Interindividual variability of CL4E [1, 7]: 34.5%
- % Interindividual variability of V2 [1, 7]: 149.7%
- clearance [1]: 9050 mL/min
- V2, volume of distribution of metabolites ([1]; population mean): 39.2 L

SMILES: CCC[C@@H]1CC(=O)N([C@@H](CC)C(N)=O)C1 [Brivaracetam]
- rise in CBZE levels, median [2]: 83.9%
- rise in CBZE levels, range [2]: 57.9–341.7%

SMILES: NC(=O)N1c2ccccc2C=Cc2ccccc21 [CBZ, Carbamazepine]
- patients experiencing a hypersensitivity reaction [3]: up to 10%
- patients experiencing a hypersensitivity reaction ([3]; listed as Carbamazepine): ~ 10%
- % Interindividual variability of CLTOT [1, 7]: 25.3%
- % Interindividual variability of FM1 [1, 7]: 6.3%
- % Interindividual variability of KASTAR [1, 7]: 75.3%
- % Interindividual variability of V1 [1, 7]: 13.6%
- V1, central distribution volume of CBZ ([1]; population mean, final model, apparent (V/F)): 161 L
- CLTOT, total clearance of CBZ ([1]; population mean, final model, oral dosing, apparent (CL/F), typical value non-induced, 400 mg daily dose, no phenytoin): 1.96 L/h
- KASTAR ([1]; population mean, absorption rate constant KA=CLTOT/V1+KAstar): 0.409 h⁻¹
- FM1 (metabolite fraction) [4]: 0.64
- fraction of CBZ converted to CBZE assumed in this model [5]: 0.36
- parent CBZ primarily converted to CBZE ([5]; prior mass balance information): 36%
- fraction of CBZ converted to CBZE assumed in the model of Jiao et al. ([5]; ref Jiao et al. (58)): 0.65

SMILES: CCC1(c2ccccc2)C(=O)NC(=O)NC1=O [phenobarbital]
- effect of concomitant treatment as covariate on CBZ clearance/metabolism [1]: None of those antiepileptic drugs (AEDs) achieved a significant effect

SMILES: NC(=O)N1c2ccccc2C2OC2c2ccccc21 (stereo not shown) [CBZE, carbamazepine 10,11‐epoxide]
- CL estimate for CBZE in a previous population PK model [6]: 28 L/h
- reduction of clearance of CBZE ([1]; EPHX1-416G/G genotype (3 subjects) compared with EPHX1-416G/A and -416A/A): approximately 50%
- % Interindividual variability of CL2E [1, 7]: 27.9%
- % Interindividual variability of V2 [1, 7]: 149.7%
- clearance [1]: 162 mL/min
- Cov.Eff.(EPHXAGHOM on CL2E) ([1]; multiplier on CBZE clearance in EPHX1-416G/G homozygotes (n=3) vs G/A and A/A): 0.502
- V2, volume of distribution of metabolites ([1]; population mean): 39.2 L

SMILES: NC(=O)N1c2ccccc2C=Cc2cc(O)ccc21 [2OH‐CBZ, 2‐hydroxycarbamazepine]
- % Interindividual variability of CL3E [1, 7]: 42.3%
- % Interindividual variability of V2 [1, 7]: 149.7%
- clearance [1]: 12100 mL/min
- CL3E induction effect ([1]; multiplier (fold) on CL3E for induced period vs non-induced): 1.63
- V2, volume of distribution of metabolites ([1]; population mean): 39.2 L
